Measured values published in patent US9290468B2, “Benzoheterocyclic compounds and use thereof” (SHANGHAI KECHOW PHARMA, INC., priority 2012, dated 2016).

What was measured:
[1] = test system: HT29 human colon cancer cells xenograft; test: In vivo anti-tumor efficacy in HT29 tumor xenograft model; design: species or system BALB/c nude mice; settings: 20 mg/kg, oral gavage once daily, after 16 days of treatment, HT29 xenograft in nude mice
Description: Female BALB/c nude mice of 5-6 week old were used for all the in vivo efficacy studies. Mice were injected with HT29 human colon cancer cells at 5×10^6 cells per 100 μL SFM into right flank. Tumor volumes were monitored by caliper measurement using the formula: tumor volume (mm^3)=(w^2×l)/2, where w=width and c=length in mm of the tumor. When the tumor volumes reached 150˜300 mm^3, mice were randomized to treatment groups (5˜10 mice per group) to receive compounds (20 mg/kg doses) or vehicle by oral gavage once daily for 16 days. The tumor volumes and body weight were measured every 2-3 days for data analysis. Tumor growth inhibition (TGI) and body weight changes were calculated compared to the vehicle treated groups.

A375 cells = test: Cell growth inhibition assay (MTT), A375 cells; type: cell-based; settings: Homo sapiens, A-375, 72 h
Description: (§1) When the HT29 cells reach their exponential phase of growth, 4×10^3 cells/well were plated into 96-well plates, the edge of plates were filled with sterility PBS, at the same time, filled three holds only with medium as blank group. • 2. The plates were cultured in a humidified 5% CO2 incubator at 37° C. for 24 h, and allowed to proliferate for reaching their exponential phase of growth. • 3. Samples were dissolved in DMSO (dimethyl sulfoxide), the concentration of Samples is 10 mmol/L, 1 mmol/L, 100 μmol/L, 10 μmol/L, 1 μmol/L, 0.1 μmol/L, and further diluted with cell culture medium. The final does concentration were 10 μmol/L, 1 μmol/L, 100 nmol/L, 10 nmol/L, 1 nmol/L, 0.1 nmol/L, 0 nmol/L (the control group). The final DMSO concentration used was 1‰ of total volume of medium in all treatments, including the control group. • Blank: medium • Control: the same dose of DMSO with experiment. Group, the DMSO was diluted with cell perfect culture medium. • Experiment: the cells were treated with the concentration of 10 μmol/L, 1 μmol/L, 100 nmol/L, 10 nmol/L, 1 nmol/L, 0.1 nmol/L. • 4. The plates were cultured in a humidified 5% CO2 incubator at 37° C. for 72 h. 20 μL of 3-(4,5-dimethylthiazol-2-yl)-2,5-diphenyltetrazolium bromide (MTT) reagent (5 mg/mL) in phosphate buffered serum (PBS) was added to each well. • 5. The plates were cultured in a humidified 5% CO2 incubator at 37° C. for 4 h. Subsequently, the solution was aspirated and 150 uL dimethyl sulfoxide was added to release the formed formazan crystals from the living cells mitochondria into the solution. • 6. After moderated shaking for 3 min, absorbance was measured at 490 nm using microplate reader. Methods 2 (A375) • 1. When the A375 cells reach their exponential phase of growth, 5×10^3 cells/well were plated into 96-well plates, the edge of plates were filled with sterility PBS, at the same time, filled three holds only with medium as blank group. • 2. The plates were cultured in a humidified 5% CO2 incubator at 37° C. for 24 h. Allowed to proliferate for reaching their exponential phase of growth. • 3. Samples were dissolved in DMSO (Dimethyl Sulfoxide), the concentration of Samples is 10 mmol/L, 1 mmol/L, 100 μmol/L, 10 μmol/L, 1 μmol/L, 0.1 μmol/L, and further diluted with cell culture medium. The final does concentration were 10 μmol/L, 1 μmol/L, 100 nmol/L, 10 nmol/L, 1 nmol/L, 0.1 nmol/L, 0 nmol/L (the control group). The final DMSO concentration used was 1‰ of total volume of medium in all treatments, including the control group. • Blank: medium • Control: the same dose of DMSO with experiment group, the DMSO was diluted with cell perfect culture medium • Experiment: the cells were treated with the concentration of 10 μmol/L, 1 μmol/L, 100 nmol/L, 10 nmol/L, 1 nmol/L, 0.1 nmol/L • 4. The plates were cultured in a humidified 5% CO2 incubator at 37° C. for 72 h. 20 μL of 3-(4,5-dimethylthiazol-2-yl)-2,5-diphenyltetrazolium bromide (MTT) reagent (5 mg/mL) in phosphate buffered serum (PBS) was added to each well. • 5. The plates were cultured in a humidified 5% CO2 incubator at 37° C. for 4 h. Subsequently, the solution was aspirated and 150 uL dimethyl sulfoxide was added to release the formed formazan crystals from the living cells mitochondria into the solution. • 6. After moderated shaking for 3 min, absorbance was measured at 490 nm using microplate reader.

TNF-α = test: Inhibition of TNF-α expression, LPS-stimulated spleen cells, ELISA; settings: Mus musculus, 24 h, read-out: Inhibition of TNF-α expression
Description: Take spleens of BALB/c gene reported mice, cultured in RPMI1640 medium (HyClone). Spleen was ground into single cell suspension, added red blood cell lysis buffer (sigma) to suspension, for cracking the red blood cells • 2. […] Dissolved compounds with DMSO and diluted with RPMI1640 medium containing 10% serum, diluted to a final concentration of 200 nM. • 4. Cells were added to 96 well plates, every hole was 100 μL. […] Each compound and control is three-hole wells. • 5. Cultured at 37° C. for 24 h. • 6. […] Using ELISA (enzyme-linked immunosorbent assay) technique for the determination of the amount of TNF-α in the 24 hours.
(§2) Control was DMSO and its concentration was same as the final concentration of test compounds.

Interleukin-4 (IL-4) = test: Inhibition of Interleukin-4 (IL-4), GFP+ of CD4+ spleen cells by flow cytometry; settings: Mus musculus, 48 h, read-out: IL-4 inhibition
Description: Take spleens of BALB/c gene reported mice, culture in RPMI1640 medium (HyClone). • 2. Spleen will be ground into single cell suspension, add red blood cell lysis buffer (sigma) to suspension, for cracking the red blood cells. • 3. […] Dissolved compounds with DMSO and diluted with RPMI1640 medium containing 10% serum, diluted to a final concentration of 200 nM. • 5. […] After mixing, cells were added to 96 well plates, every hole is 100 μL. […] Each compound and control is three-hole wells, cultured at 37° C. for 48 h. • 6. After 48 h, the plates removed from the incubator and each well was collected in the flow tube (BD). • 7. Added cells to ice pre-cooling of PBS (phosphate buffer solution) solution to wash, and in 100 μL of PBS, join the fluorescent antibody CD4 0.5 μL, put in ice 15 min avoid light. • 8. After dyeing wash antibodies with the ice pre-cooling PBS solution. And prepare for flow cytometric detection. • 9. Using flow cytometry (BD FACS calibur) select the CD4+ cell populations, and detect GFP+ cells accounted for the percentage of CD4+ cells, to determine the impact of compounds on IL-4. • 10.
as §2

HT29 cells = test: Cell growth inhibition assay (MTT), HT29 cells; type: cell-based; settings: Homo sapiens, HT-29, 72 h
Description: as §1

COLO 205 tumor xenograft = test: In vivo anti-tumor efficacy in COLO205 tumor xenograft model
[2] = 10 mg/kg QD by gavage x 18 days

Row | Structure (SMILES) | IC50 (A375 cells) [nM] | IC50 (HT29 cells) [nM] | other results
1 | Cn1cnc2c(F)c(Nc3ccc(Br)cc3Cl)c(C(=O)NOCCO)cc21 [AZD6244, reference compound] |  |  | Tumor growth inhibition (TGI) [1]: 48.3%
2 | O=C(NOCCO)c1cc2ocnc2c(F)c1Nc1ccc(I)cc1F [Compound 1, 4-fluoro-5-((2-fluoro-4-iodophenyl)amino)-N-(2-hydroxyethoxy)benzo[d]oxazole-6-carboxamide] | 0.85 | 2.3 | Tumor growth inhibition (TGI) [1]: 55.1%; inhibition at 0.1 µM (TNF-α): ≤ 40%; inhibition at 0.1 µM (Interleukin-4 (IL-4)): ≤ 50%; Tumor growth inhibition vs vehicle control group (COLO 205 tumor xenograft; [2]): 91.22%
3 | O=C(NOCC(O)CO)c1cc2ocnc2c(F)c1Nc1ccc(I)cc1F (centres unmarked) [Compound 2, N-(2,3-dihydroxypropoxy)-4-fluoro-5-((2-fluoro-4-iodophenyl)amino)benzo[d]oxazole-6-carboxamide] | 4.6 | 8.1 | 
4 | O=C(NOCCO)c1cc2ocnc2c(F)c1Nc1ccc(Br)cc1Cl [Compound 3, 5-((4-bromo-2-chlorophenyl)amino)-4-fluoro-N-(2-hydroxyethoxy)benzo[d]oxazole-6-carboxamide] | 61.3 | 51.8 | Tumor growth inhibition (TGI) [1]: 32.3%; inhibition at 0.1 µM (TNF-α): ≤ 40%; inhibition at 0.1 µM (Interleukin-4 (IL-4)): ≤ 50%; Tumor growth inhibition vs vehicle control group (COLO 205 tumor xenograft; 20 mg/kg QD by gavage x 18 days): 47.11%
5 | O=C(NOCC(O)CO)c1cc2ocnc2c(F)c1Nc1ccc(Br)cc1Cl (centres unmarked) [Compound 4, 5-((4-bromo-2-chlorophenyl)amino)-N-(2,3-dihydroxypropoxy)-4-fluorobenzo[d]oxazole-6-carboxamide] | 97.5 | 138 | 
6 | O=S(=O)(Nc1cc2ocnc2c(F)c1Nc1ccc(I)cc1F)C1CC1 [Compound 5, N-(4-fluoro-5-((2-fluoro-4-iodophenyl)amino)benzo[d]oxazol-6-yl)cyclopropanesulfonamide] | 125 | 81.6 | 
7 | O=S(=O)(Nc1cc2ocnc2c(F)c1Nc1ccc(I)cc1F)C1(CC(O)CO)CC1 (centres unmarked) [Compound 6, 1-(2,3-dihydroxypropyl)-N-(4-fluoro-5-((2-fluoro-4-iodophenyl)amino)benzo[d]oxazol-6-yl)cyclopropane-1-sulfonamide] | 103 | 78.3 | 
8 | O=S(=O)(Nc1cc2ocnc2c(F)c1Nc1ccc(Br)cc1Cl)C1CC1 [Compound 7, N-(5-((4-bromo-2-chlorophenyl)amino)-4-fluorobenzo[d]oxazol-6-yl)cyclopropanesulfonamide] | 239 | 283 | 
9 | O=S(=O)(Nc1cc2ocnc2c(F)c1Nc1ccc(Br)cc1Cl)C1(CC(O)CO)CC1 (centres unmarked) [Compound 8, N-(5-((4-bromo-2-chlorophenyl)amino)-4-fluorobenzo[d]oxazol-6-yl)-1-(2,3-dihydroxypropyl)cyclopropane-1-sulfonamide] | 738 | 1090 | 
10 | O=C(NOCCO)c1cc2ocnc2c(F)c1Nc1ccc(Br)cc1F [Compound 25, 4-fluoro-5-((2-fluoro-4-bromophenyl)amino)-N-(2-hydroxyethoxy)benzo[d]oxazole-6-carboxamide] |  |  | inhibition at 0.1 µM (TNF-α): ≤ 40%; inhibition at 0.1 µM (Interleukin-4 (IL-4)): ≤ 50%
11 | O=C(NOCCO)c1cc2scnc2c(F)c1Nc1ccc(Br)cc1F [Compound 34, 4-fluoro-5-((2-fluoro-4-bromophenyl)amino)-N-(2-hydroxyethoxy)benzo[d]thiazol-6-carboxamide] |  |  | inhibition at 0.1 µM (TNF-α): ≤ 40%; inhibition at 0.1 µM (Interleukin-4 (IL-4)): ≤ 50%
12 | O=C(NOCCO)c1cc2snnc2c(F)c1Nc1ccc(Br)cc1F [Compound 43, 5-((4-bromo-2-fluorophenyl)amino)-4-fluoro-N-(2-hydroxyethoxy)benzo[d][1,2,3]thiadiazole-6-carboxamide] |  |  | inhibition at 0.1 µM (TNF-α): ≤ 40%; inhibition at 0.1 µM (Interleukin-4 (IL-4)): ≤ 50%
13 | Cn1cnc2c(F)c(Nc3ccc(Br)cc3Cl)c(C(=O)NOCCO)cc21 [Reference compound 1, reference compound] |  |  | Tumor growth inhibition vs vehicle control group (COLO 205 tumor xenograft; [2]): 72.80%

Further lines, with some results ahead:

Row | IC50 (A375 cells) [nM] | IC50 (HT29 cells) [nM] | Structure (SMILES) | other results
14 | 11.2 | 18.5 | O=C(NOCC(O)CO)c1cc2scnc2c(F)c1Nc1ccc(I)cc1F (centres unmarked) [Compound 10, N-(2,3-dihydroxypropoxy)-4-fluoro-5-((2-fluoro-4-iodophenyl)amino)benzo[d]thiazole-6-carboxamide] | 
15 | 61.4 | 51.2 | O=C(NOCCO)c1cc2scnc2c(F)c1Nc1ccc(Br)cc1Cl [Compound 11, 5-((4-bromo-2-chlorophenyl)amino)-4-fluoro-N-(2-hydroxyethoxy)benzo[d]thiazole-6-carboxamide] | Tumor growth inhibition (TGI) [1]: 68.51%; inhibition at 0.1 µM (TNF-α): ≤ 40%; inhibition at 0.1 µM (Interleukin-4 (IL-4)): ≤ 50%; Tumor growth inhibition vs vehicle control group (COLO 205 tumor xenograft; [2]): 82.14%
16 | 174 | 738 | O=C(NOCC(O)CO)c1cc2scnc2c(F)c1Nc1ccc(Br)cc1Cl (centres unmarked) [Compound 12, N-(2,3-dihydroxypropoxy)-4-fluoro-5-((4-bromo-2-chlorophenyl)amino)benzo[d]thiazole-6-carboxamide] | 
17 | 207 | 98.3 | O=S(=O)(Nc1cc2scnc2c(F)c1Nc1ccc(I)cc1F)C1CC1 [Compound 13, N-(4-fluoro-5-((2-fluoro-4-iodophenyl)amino)benzo[d]thiazol-6-yl)cyclopropanesulfonamide] | 
18 | 119 | 201 | O=S(=O)(Nc1cc2scnc2c(F)c1Nc1ccc(I)cc1F)C1(CC(O)CO)CC1 (centres unmarked) [Compound 14, 1-(2,3-dihydroxypropyl)-N-(4-fluoro-5-((2-fluoro-4-iodophenyl)amino)benzo[d]thiazol-6-yl)cyclopropane-1-sulfonamide] | 
19 | 99.8 | 184 | O=S(=O)(Nc1cc2scnc2c(F)c1Nc1ccc(Br)cc1Cl)C1CC1 [Compound 15, N-(5-((4-bromo-2-chlorophenyl)amino)-4-fluorobenzo[d]thiazol-6-yl)cyclopropanesulfonamide] | 
20 | 151 | 1310 | O=S(=O)(Nc1cc2scnc2c(F)c1Nc1ccc(Br)cc1Cl)C1(CC(O)CO)CC1 (centres unmarked) [Compound 16, N-(5-((4-bromo-2-chlorophenyl)amino)-4-fluorobenzo[d]thiazol-6-yl)-1-(2,3-dihydroxypropyl)cyclopropane-1-sulfonamide] | 
21 | 0.24 | 1 | O=C(NOCCO)c1cc2snnc2c(F)c1Nc1ccc(I)cc1F [Compound 17, 4-fluoro-5-((2-fluoro-4-iodophenyl)amino)-N-(2-hydroxyethoxy)benzo[d][1,2,3]thiadiazole-6-carboxamide] | Tumor growth inhibition (TGI) [1]: 88.75%; inhibition at 0.1 µM (TNF-α): ≤ 40%; inhibition at 0.1 µM (Interleukin-4 (IL-4)): ≤ 50%; Tumor growth inhibition vs vehicle control group (COLO 205 tumor xenograft; 5 mg/kg QD by gavage x 18 days): 95.35%
22 | 16.8 | 66.4 | O=C(NOCC(O)CO)c1cc2snnc2c(F)c1Nc1ccc(I)cc1F (centres unmarked) [Compound 18, N-(2,3-dihydroxypropoxy)-4-fluoro-5-((2-fluoro-4-iodophenyl)amino)benzo[d][1,2,3]thiadiazole-6-carboxamide] | 
23 | 49.4 | 65.7 | O=C(NOCCO)c1cc2snnc2c(F)c1Nc1ccc(Br)cc1Cl [Compound 19, 5-((4-bromo-2-chlorophenyl)amino)-4-fluoro-N-(2-hydroxyethoxy)benzo[d][1,2,3]thiadiazole-6-carboxamide] | Tumor growth inhibition (TGI) [1]: 50.9%; inhibition at 0.1 µM (TNF-α): ≤ 40%; inhibition at 0.1 µM (Interleukin-4 (IL-4)): ≤ 50%; Tumor growth inhibition vs vehicle control group (COLO 205 tumor xenograft; [2]): 86.22%
24 | 97.3 | 687 | O=C(NOCC(O)CO)c1cc2snnc2c(F)c1Nc1ccc(Br)cc1Cl (centres unmarked) [Compound 20, 5-((4-bromo-2-chlorophenyl)amino)-N-(2,3-dihydroxypropoxy)-4-fluorobenzo[d][1,2,3]thiadiazole-6-carboxamide] | 
25 | 1770 | 1080 | O=S(=O)(Nc1cc2snnc2c(F)c1Nc1ccc(I)cc1F)C1CC1 [Compound 21, N-(4-fluoro-5-((2-fluoro-4-iodophenyl)amino)benzo[d][1,2,3]thiadiazol-6-yl)cyclopropanesulfonamide] | 
26 | 1160 | 2620 | O=S(=O)(Nc1cc2snnc2c(F)c1Nc1ccc(I)cc1F)C1(CC(O)CO)CC1 (centres unmarked) [Compound 22, 1-(2,3-dihydroxypropyl)-N-(4-fluoro-5-((2-fluoro-4-iodophenyl)amino)benzo[d][1,2,3]thiadiazol-6-yl)cyclopropane-1-sulfonamide] | 
27 | 562 | 3640 | O=S(=O)(Nc1cc2snnc2c(F)c1Nc1ccc(Br)cc1Cl)C1CC1 [Compound 23, N-(5-((4-bromo-2-chlorophenyl)amino)-4-fluorobenzo[d][1,2,3]thiadiazol-6-yl)cyclopropanesulfonamide] | 
28 | 992 | 4370 | O=S(=O)(Nc1cc2snnc2c(F)c1Nc1ccc(Br)cc1Cl)C1(CC(O)CO)CC1 (centres unmarked) [Compound 24, N-(5-((4-bromo-2-chlorophenyl)amino)-4-fluorobenzo[d][1,2,3]thiadiazol-6-yl)-1-(2,3-dihydroxypropyl)cyclopropane-1-sulfonamide] | 
